In brackets after ≈: the same amount, converted by molar mass. Where two headings read alike, the source gives them in different places. Non-standard residues stand in square brackets, D forms with d. Residues, ends and D or L forms follow the SMILES beside them. Gly(N(CH2)3NH2) = NCCCNCC(=O)O; Nphe = O=C(O)CNCc1ccccc1; Orn = NCCC[C@H](N)C(=O)O; Nlys = NCCCCNCC(=O)O

The test system of one data set is human erythrocytes. The format is cell-based. The conditions noted are these: red cells of human, 1 h. The source says:
A detrimental property of most AMPs is their toxicity towards host cells due to non-specific interactions with eukaryotic membranes. Thus, the development of antimicrobial oligomers is often aimed at maximizing antimicrobial activity while minimizing eukaryotic cell toxicity. The inventors therefore sought to determine the toxicity of the cyclic peptoids by measuring hemolytic activity. The concentration of antimicrobial compound required to lyse 10% of human erythrocytes (HC10) following incubation for 1 hour at 37° C., was determined.
Hemolysis assays were conducted in 96-well plates using fresh human erythrocytes in PBS (phosphate-buffered saline) solution. Erythrocytes treated with a detergent (1% Triton X-100) solution were used as a positive control for erythrocyte lysis, and vehicle buffer (PBS) was used as a negative control. Hemolytic percentages were defined as [(A−Atestblank)/(Acontrol−Ablank)]×100, where A is the absorbance of the test well and Acontrol the average absorbance of wells with erythrocytes exposed to […], Atestblank (PBS and antimicrobial) and Ablank (PBS only).

In data set [1] the test system is MRSA USA300 (S. aureus LAC). Conditions: for MIC + NHS: MRSA USA300 in 50% (v/v) normal human serum. As to the method:
The antimicrobial activities of these four compounds were evaluated in the presence of serum. Such a consideration is critical in evaluating the potential of antimicrobial compounds to be used systemically, as serum components (e.g. proteins) may complicate antimicrobial activity. The assay was conducted similarly as described above, with the media supplemented with 50% normal human serum (NHS).
(§1) Minimum Inhibitory Concentrations (MIC) were determined against S. aureus LAC in RPMI media supplemented with or without normal human serum (NHS). The 10% hemolytic dose was determined from lysis of human erythrocytes. A selectivity ratio (SR) is defined as HC10/MIC. Cytotoxicity assays were performed using a CellTiter kit with HeLa cells. […] TI: therapeutic index defined as LD50/MIC.
(§2) Antimicrobial susceptibility assays were conducted in 96-well plates using the broth microdilution procedure outlined in the document M07-A7 of the CLSI (Clinical and Laboratory Standards Institute. Methods for Dilution Antimicrobial Susceptibility Tests for Bacteria That Grow Aerobically-Seventh Edition: Approved Standard CLSI document M07-A7. CLSI, Wayne, USA, 2006). Screens against Staphylococcus aureus LAC, MW2, Newman, and RN6734 were conducted in RPMI (Roswell Park Memorial Institute) medium. For assays in serum, normal human pooled serum (NHS) was filtered through a 0.45 μm syringe filter (Pall) prior to dilution with RPMI, such that each well contained 50% (v/v) NHS. Experiments were conducted in three independent replicates of three parallel trials to ensure statistical significance.
(§3) MRSA pulse-field gel electrophoresis types USA300 (strain LAC) (Kennedy, et al, Proc. Natl. Acad. Sci. U.S.A. 2008, 105, 1327-1332) and USA500 (BK2395) (Alonzo, 3rd, et al, Mol. Microbiol. 2012, 83, 423-435) were used in this study. S. aureus were grown in tryptic soy broth (BD Biosciences) as described previously. (Alonzo) Antimicrobial susceptibility assays were conducted in 96-well plates using the broth […] procedure outlined in the document M07-A7 of the CLSI. (Clinical and Laboratory Standards Institute. Methods for Dilution Antimicrobial Susceptibility Tests for Bacteria That Grow Aerobically-Seventh Edition: Approved Standard CLSI document M07-A7. CLSI, Wayne, USA, 2006). The screens against Staphylococcus aureus LAC were conducted in either LB (Luria-Bertani) or RPMI medium. For assays in serum, normal human pooled serum (NHS) was filtered through a 0.45 μm syringe filter (Pall) prior to dilution with RPMI, such that each well contained 50% (v/v) NHS. Experiments were conducted in three independent replicates of three parallel trials to ensure statistical significance.

A further data set can be described thus: in vitro. Conditions: LC50 (50% lethal concentration), HeLa cells, 1 hr incubation at 37° C. On the procedure: As an additional parameter of selectivity, the inventors also evaluated the compounds for toxicity towards nucleated mammalian cells (FIG. 3). The compounds were incubated with HeLa cells for 1 hr at 37° C. and cell viability was determined by a dye-based assay.
HeLa cells (˜[…] cells per well) were seeded in a tissue culture-treated 96-well plate (Corning). The cells were monitored for confluence via light microscopy prior to the addition of compounds to a final volume of 100 μL/well. Following incubation with the compounds (for 1 hour or 24 hours at 37° C.), Cell Titer (Promega) was added to each well and the assay was allowed to develop for 1 hour at 37° C. Absorbance was then read at 490 nm using a Wallac Envision plate reader. The experiments were always conducted in triplicate with water or ethanol as the negative control. Percent cell viability (% CV) was calculated as the ratio of mean absorbance of the test wells and the mean absorbance of the water or ethanol treated wells.
Following seeding in DMEM supplemented with 10% v/v FBS (fetal bovine serum) in tissue-culture plates (Corning), adherent HeLa cells were trypsinized, washed in PBS, and re-suspended in medium at a density of 1×10^6 cells/mL. A 100 μL cell suspension was seeded onto a 96-well plate and cultured for 25 hrs. Subsequently, cells were exposed to the different compounds for 1 and 24 hrs and the cell viability evaluated using CellTiter 96® AQueous Non-Radioactive Cell Proliferation Assay (Promega).

For data set [2], the system named is Plasmodium falciparum 3D7. Conditions: 3D7, 96 h.
Procedure: In order to assess the ability of the peptoid oligomers described herein to act as antimalarial agents, fluorescence-based in vitro antimalarial assays were performed.
Cultures are maintained by changing the medium daily and keeping parasitemia below 6%. When performed, parasite cultures are synchronized using a MACS cell separation column (Miltenyi Biotec). To determine parasitemia, the number of parasitized erythrocytes from 500 cells in a Giemsa stained blood smear are counted.
Drug Treatment: • 1. Add 100 μL of warm (37° C.) complete media containing drug to each well of a 96 multi-well clear, sterile plate. • 2. […] After 96 hours of growth*, freeze at −80° C. overnight. *Note: Growth can be examined by pipetting 5 from desired wells onto slides and creating blood smears. […] After freezing, thaw at 37° C. for 4 hours. • 6. Transfer 100 μL, pipetting wells up and down to mix, to a black, sterile 96 well plate. • 7. Create working solution of 0.2 μL of SYBR Green per 1 mL of lysis buffer, and add 100 μL of this solution to each well, pipetting up and down to mix/lyse erythrocytes. *Note: mixture should be a translucent red color. • 8. Incubate at room temperature, protected from light, on a shaker for 1 hour.
Measure the fluorescence using excitation and emission wavelengths of 485 and 530 nm, respectively. […]
For data set [3], the system named is MRSA USA300 (S. aureus LAC). As to the method:
The cyclic pentamers and hexamers were evaluated for antimicrobial activity against S. aureus LAC, a clinical isolate of MRSA. The antimicrobial assay was conducted using previously published procedures (CLSI Broth Macrodilution Procedures CLSI M07-A7).
as §1, §2, §3

[4] abbreviates: Table 2, S. aureus LAC, clinical isolate of MRSA.
[5] abbreviates: Table 3, MRSA USA300, without serum.

For the compound `NCCCN1CC(=O)N(Cc2ccccc2)CC(=O)N(CCCN)CC(=O)N(Cc2ccccc2)CC(=O)N(CCCN)CC(=O)N(Cc2ccccc2)CC1=O` [Compound 23, C(NapNpm)3] (cyclo([Nphe][Gly(N(CH2)3NH2)][Nphe][Gly(N(CH2)3NH2)][Nphe][Gly(N(CH2)3NH2)])), the “HC10 (concentration required to lyse 10% of human erythrocytes)” value in the data set with human erythrocytes was >250 µg/mL.

Turning to `NCCCCN1CC(=O)N(Cc2ccccc2)CC(=O)N(CCCCN)CC(=O)N(Cc2ccccc2)CC(=O)N(CCCCN)CC(=O)N(Cc2ccccc2)CC1=O` [Compound 30, C(NabNpm)3] (cyclo([Nlys][Nphe][Nlys][Nphe][Nlys][Nphe])), the “HC10 (concentration required to lyse 10% of human erythrocytes)” value with human erythrocytes is >250 µg/mL.

On to `N=C(N)NCCCCN1CC(=O)N(CC(c2ccccc2)c2ccccc2)CC(=O)N(CCCCNC(=N)N)CC(=O)N(CC(c2ccccc2)c2ccccc2)CC(=O)N(CCCCNC(=N)N)CC(=O)N(CC(c2ccccc2)c2ccccc2)CC(=O)N(CCCCNC(=N)N)CC(=O)N(CC(c2ccccc2)c2ccccc2)CC(=O)N(CCCCNC(=N)N)CC(=O)N(CC(c2ccccc2)c2ccccc2)CC1=O` [Compound 31, C(NgbNdp)5], for which the “HC10 (concentration required to lyse 10% of human erythrocytes)” value in the data set with human erythrocytes was >62.5 µg/mL.

The term CC50 denotes the concentration at which the toxic effect on the cells reaches its halfway point. Read a high CC50 as lower toxicity to the cells. On to `NCCCN1CC(=O)N(CC(c2ccccc2)c2ccccc2)CC(=O)N(CCCN)CC(=O)N(CC(c2ccccc2)c2ccccc2)CC(=O)N(CCCN)CC(=O)N(CC(c2ccccc2)c2ccccc2)CC1=O` [Compound C3, C(NapNdp)3], for which the “MIC + NHS” value in data set [1] came to 15.6 µg/mL. For the same compound, the CC50 in “in vitro” worked out at 63 µg/mL (≈ 59.8 µM).

For orientation: IC50 means the concentration needed to halve the response being measured. Take `COc1ccc(CN2CC(=O)N(CCCN)CC(=O)N(Cc3ccc(OC)c(OC)c3)CC(=O)N(CCCN)CC(=O)N(Cc3ccc(OC)c(OC)c3)CC(=O)N(CCCN)CC2=O)cc1OC` [Compound C5-1]: the IC50 in data set [2] stood at 26.8 µM.

The MIC is the lowest concentration that inhibits growth of the organism. As to `NCCCN1CC(=O)N(CCC(c2ccccc2)c2ccccc2)CC(=O)N(CCCN)CC(=O)N(CCC(c2ccccc2)c2ccccc2)CC(=O)N(CCCN)CC(=O)N(CCC(c2ccccc2)c2ccccc2)CC1=O` [Compound C103, C(NapNdpp)3], in data set [3] (USA300), the MIC came out at 3.9 µg/mL (≈ 3.56 µM).

With `NCCCN1CC(=O)N(C(c2ccccc2)c2ccccc2)CC(=O)N(CCCN)CC(=O)N(C(c2ccccc2)c2ccccc2)CC(=O)N(CCCN)CC(=O)N(C(c2ccccc2)c2ccccc2)CC1=O` [Compound C104, C(NapNdpm)3], the MIC in data set [3] (USA300) came to 3.9 µg/mL (≈ 3.85 µM).

The compound `NCCCN1CC(=O)N(Cc2ccc(-c3ccccc3)cc2)CC(=O)N(CCCN)CC(=O)N(Cc2ccc(-c3ccccc3)cc2)CC(=O)N(CCCN)CC(=O)N(Cc2ccc(-c3ccccc3)cc2)CC1=O` [Compound C105, C(NapNpp)3] showed an MIC in data set [3] (USA300) of 3.9 µg/mL (≈ 3.85 µM).

`NCCCN1CC(=O)N(c2ccc3c(c2)Cc2ccccc2-3)CC(=O)N(CCCN)CC(=O)N(c2ccc3c(c2)Cc2ccccc2-3)CC(=O)N(CCCN)CC(=O)N(c2ccc3c(c2)Cc2ccccc2-3)CC1=O` [Compound C106, C(NapN2flene)3] had an MIC in data set [3] (USA300) of 3.9 µg/mL (≈ 3.88 µM).

In data set [3] (setting [4]), `Cc1ccc(CN2CC(=O)N(CCCN)CC(=O)N(Cc3ccc(C)cc3)CC(=O)N(CCCN)CC(=O)N(Cc3ccc(C)cc3)CC(=O)N(CCCN)CC2=O)cc1` [Compound C122, C(NapNpmpm)3] registered an MIC of 15.6 µg/mL (≈ 18.9 µM).

In data set [3] (USA300), `NCCCN1CC(=O)N(Cc2ccc(C(F)(F)F)cc2)CC(=O)N(CCCN)CC(=O)N(Cc2ccc(C(F)(F)F)cc2)CC(=O)N(CCCN)CC(=O)N(Cc2ccc(C(F)(F)F)cc2)CC1=O` [Compound C123, C(NapNptfmpm)3] had a minimal inhibitory concentration (MIC) of 3.9 µg/mL (≈ 3.95 µM).

For the compound `NCCCN1CC(=O)N(Cc2cc(C(F)(F)F)cc(C(F)(F)F)c2)CC(=O)N(CCCN)CC(=O)N(Cc2cc(C(F)(F)F)cc(C(F)(F)F)c2)CC(=O)N(CCCN)CC(=O)N(Cc2cc(C(F)(F)F)cc(C(F)(F)F)c2)CC1=O` [Compound C125, C(NapNbtfmb)3], the MIC in data set [3] (setting [4]) and in data set [3] (setting [5]) was 3.9 µg/mL (≈ 3.27 µM) throughout. In addition, the “decrease in anti-microbial activity in serum” value in data set [1] (50% NHS versus no serum) was “sixteen-fold”. In data set [1], the “MIC + NHS” value was determined as 62.5 µg/mL. In addition, half-maximal cytotoxicity in “in vitro” (human) (CC50 at 1 h) was put at 47 µg/mL (≈ 39.4 µM).

With `CC(C)C[C@@H]1NC(=O)[C@H](CCCN)NC(=O)[C@H](C(C)C)NC(=O)[C@@H]2CCCN2C(=O)[C@@H](Cc2ccccc2)NC(=O)[C@H](CC(C)C)NC(=O)[C@H](CCCN)NC(=O)[C@H](C(C)C)NC(=O)[C@@H]2CCCN2C(=O)[C@@H](Cc2ccccc2)NC1=O` [Gramicidin S, reference compound] (cyclo(V[Orn]L[dF]PV[Orn]L[dF]P)), in data set [3] (setting [5]), the MIC was determined as 31.3 µg/mL (≈ 27.4 µM). Moreover, the “MIC + NHS” value in data set [1] is 31.3 µg/mL. In “in vitro”, the CC50 came out at 31.3 µg/mL (≈ 27.4 µM).

Source of the values: patent US9938321B2, “Cyclic peptoid oligomers, pharmaceutical compositions and methods of using the same” (priority 2013, dated 2018).
